The results in this text go back to patent US11491245B2, “Gadolinium chelate compounds for use in magnetic resonance imaging” (BAYER PHARMA AKTIENGESELLSCHAFT, priority 2015, dated 2022).

What all share (type): physicochemical
A short description of data set [1]: Relaxivity measurements at 1.41 T. The following applies: 1.41 T, 37° C., normalized to Gd; for r1 FBS: fetal bovine serum. As to the method: Relaxivity measurements at 1.41 T were performed using a MiniSpec mq60 spectrometer (Bruker Analytik, Karlsruhe, Germany) operating at a resonance frequency of 60 MHz and a temperature of 37° C. The T1 relaxation times were determined using the standard inversion recovery (IR) method with a fixed relaxation delay of at least 5×T1. The variable inversion time (TI) was calculated automatically by the standard software of the MiniSpec mq60 (8 steps). The T2 measurements were done by using a Carr-Purcell-Meiboom-Gill (CPMG) pulse sequence, applying a relaxation delay of at least 5×T1.
Each relaxivity measurement was performed using three different Gd concentrations (3 concentrations between 0.05 and 2 mM). The T1 and T2 relaxation times of the example compounds 1-10 were measured in different media for example in water, fetal bovine serum (FBS, Sigma, F7524) and human plasma.
Human plasma preparation: For each experiment fresh blood was taken from a volunteer using 10 mL citrate-tubes (Sarstedt S-Monovette 02.1067.001, 10 mL, Citrate). The 10 mL citrate-tubes were carefully inverted 10 times to mix blood and anticoagulant and centrifuged for 15 minutes at 1811 g at room temperature (Eppendorf, Centrifuge 5810R).
The relaxivities ri (where i=1, 2) were calculated on the basis of the measured relaxation rates Ri in water and plasma: Ri=Ri(0)+ri[CGd], where Ri(0) represent the relaxation rate of the respective solvent and CGd the concentration of the compound normalized to the Gadolinium. The Gadolinium concentrations of the investigated solutions were verified by Inductively Coupled Plasma Mass Spectroscopy (ICP-MS Agilent 7500a, Waldbronn, Germany).

Data set [2] can be described thus: Relaxivity measurements at 3.0 T. The following applies: 37° C., normalized to Gd, average ± standard deviation. As to the method: Relaxivity measurements at 3.0 T were performed with a whole body 3.0 T MRI Scanner (Philips Intera, Philips Healthcare, Hamburg, Germany) using a knee-coil (SENSE-Knee-8, Philips Healthcare, Hamburg, Germany). The sample tubes (CryoTubetm Vials, Thermo Scientific 1.8 mL, Roskilde, Denmark) were positioned in 3 rows of 4 and 5 tubes in a plastic holder in a box filled with water. The temperature was adjusted to 37° C. For the MRI sequence, the shortest possible echo-time (TE) with 7.46 milliseconds was used. The inversion times were chosen to optimize the sequence to measure T1 values corresponding to the estimated T1 range of all relaxation times of contrast media containing solutions. The following inversion times (TIs) were applied: 50, 100, 150, 200, 300, 500, 700, 1000, 1400, 2100, 3200, and 4500 milliseconds. The sequence was run with a constant relaxation delay of 3.4 seconds after the registration of the last echo (variable TR in the range from 3450 to 7900 milliseconds). For details of the fit procedure, see Rohrer et. al. (Invest. Radiol. 2005; 40, 11: 715-724). The experimental matrix of the phantom measurement was 320×320.
The relaxivities were evaluated using three different concentrations of each compound (3 concentrations between 0.05 and 2 mM).
The T1 relaxation times of the Example compounds 1-6 were measured in water and human plasma. Human plasma preparation: For each experiment fresh blood was taken from a volunteer using 10 mL citrate-tubes (Sarstedt S-Monovette 02.1067.001, 10 mL, Citrate). The 10 mL citrate-tubes were carefully inverted 10 times to mix blood and anticoagulant and centrifuged for 15 minutes at 1811 g at room temperature (Eppendorf, Centrifuge 5810R).
The relaxivities ri (where i=1, 2) were calculated on the basis of the measured relaxation rates Ri in water and plasma: Ri=Ri(0)+ri[CGd], where Ri(0) represent the relaxation rate of the respective solvent and CGd the concentration of the compound normalized to the Gadolinium (Table 2).

Data set [3] in a line: Water solubility. Conditions: 10 mM Tris-HCl buffer, 20° C. As to the method: The water solubility of the compounds was determined at room temperature (20° C.) in 0.5 mL buffer solution (10 mM Tris-HCl) in the microcentrifuge tubes (Eppendorf, 2.0 mL safe-lock caps). The solid compound was added stepwise to the buffer solution. The suspension was mixed using a shaker (Heidolph Reax 2000) and treated 5 min in an ultrasound bath (Bandelin, Sonorex Super RK255H) The suspension was stored at room temperature (20° C.) over night and final Gadolinium concentration was determined by inductively coupled plasma mass spectrometry (ICP-MS).

In data set [1], `C[C@H](C(=O)NCC(=O)NCC(CNC(=O)CNC(=O)[C@@H](C)N1CCN(CC(=O)[O-])CCN(CC(=O)[O-])CCN(CC(=O)[O-])CC1)(CNC(=O)CNC(=O)[C@@H](C)N1CCN(CC(=O)[O-])CCN(CC(=O)[O-])CCN(CC(=O)[O-])CC1)CNC(=O)CNC(=O)[C@@H](C)N1CCN(CC(=O)[O-])CCN(CC(=O)[O-])CCN(CC(=O)[O-])CC1)N1CCN(CC(=O)[O-])CCN(CC(=O)[O-])CCN(CC(=O)[O-])CC1.[Gd+3].[Gd+3].[Gd+3].[Gd+3]` [Example 3-1, Tetragadolinium {4,10-bis(carboxylatomethyl)-7-[(2R,16R)-3,6,12,15-tetraoxo-16-[4,7,10-tris(carboxylatomethyl)-1,4,7,10-tetraazacyclododecan-1-yl]-9,9-bis({[({(2R)-2-[4,7,10-tris(carboxylatomethyl)-1,4,7,10-tetraazacyclododecan-1-yl]propanoyl}amino)-acetyl]amino}methyl)-4,7,11,14-tetraazaheptadecan-2-yl]-1,4,7,10-tetraazacyclo-dodecan-1-yl}acetate] gave a r1 human plasma of 10.4 L/mmol/s and a r1 water of 9.5 L/mmol/s. Also, in data set [2], the r1 human plasma amounted to 10.1 ± 0.1 L/mmol/s and the r1 water was 8.9 ± 0.2 L/mmol/s.

Regarding `C[C@@H](C(=O)NCC(=O)NCC(CNC(=O)CNC(=O)[C@H](C)N1CCN(CC(=O)[O-])CCN(CC(=O)[O-])CCN(CC(=O)[O-])CC1)(CNC(=O)CNC(=O)[C@H](C)N1CCN(CC(=O)[O-])CCN(CC(=O)[O-])CCN(CC(=O)[O-])CC1)CNC(=O)CNC(=O)[C@H](C)N1CCN(CC(=O)[O-])CCN(CC(=O)[O-])CCN(CC(=O)[O-])CC1)N1CCN(CC(=O)[O-])CCN(CC(=O)[O-])CCN(CC(=O)[O-])CC1.[Gd+3].[Gd+3].[Gd+3].[Gd+3]` [Example 3-2, Tetragadolinium {4,10-bis(carboxylatomethyl)-7-[(2S,16S)-3,6,12,15-tetraoxo-16-[4,7,10-tris(carboxylatomethyl)-1,4,7,10-tetraazacyclododecan-1-yl]-9,9-bis({[({(2S)-2-[4,7,10-tris(carboxylatomethyl)-1,4,7,10-tetraazacyclododecan-1-yl]propanoyl}amino)acetyl]-amino}methyl)-4,7,11,14-tetraazaheptadecan-2-yl]-1,4,7,10-tetraazacyclododecan-1-yl}-acetate], in data set [1], the r1 human plasma worked out at 11.4 L/mmol/s and the r1 water is 9.4 L/mmol/s. For the same molecule, in data set [2], the r1 human plasma is 11.4 ± 0.2 L/mmol/s and the r1 water worked out at 9.0 ± 0.4 L/mmol/s.

With `CC(C(=O)NCC(=O)N1CCN(C(=O)CNC(=O)C(C)N2CCN(CC(=O)[O-])CCN(CC(=O)[O-])CCN(CC(=O)[O-])CC2)CCN(C(=O)CNC(=O)C(C)N2CCN(CC(=O)[O-])CCN(CC(=O)[O-])CCN(CC(=O)[O-])CC2)CCN(C(=O)CNC(=O)C(C)N2CCN(CC(=O)[O-])CCN(CC(=O)[O-])CCN(CC(=O)[O-])CC2)CC1)N1CCN(CC(=O)[O-])CCN(CC(=O)[O-])CCN(CC(=O)[O-])CC1.[Gd+3].[Gd+3].[Gd+3].[Gd+3]` (centres unmarked) [Example 7, Tetragadolinium 2,2′,2″,2′″,2″″,2′″″,2″″″,2′″″″,2″″″″,2′″″″″,2″″″″″,2′″″″″″-{1,4,7,10-tetra-azacyclododecane-1,4,7,10-tetrayltetrakis[(2-oxoethane-2,1-diyl)imino(1-oxopropane-1,2-diyl)-1,4,7,10-tetraazacyclododecane-10,1,4,7-tetrayl]}dodecaacetate], in data set [1], the “r1 FBS” value is 11.7 L/mmol/s, the r1 human plasma stood at 12.1 L/mmol/s and the r1 water is 10.8 L/mmol/s. In data set [3], this molecule showed a Solubility above 1400 mmol Gd/L.

On to `O=C([O-])CN1CCN(CC(=O)[O-])CCN(CC(=O)NCC(CNC(=O)CN2CCN(CC(=O)[O-])CCN(CC(=O)[O-])CCN(CC(=O)[O-])CC2)(CNC(=O)CN2CCN(CC(=O)[O-])CCN(CC(=O)[O-])CCN(CC(=O)[O-])CC2)CNC(=O)CN2CCN(CC(=O)[O-])CCN(CC(=O)[O-])CCN(CC(=O)[O-])CC2)CCN(CC(=O)[O-])CC1.[Gd+3].[Gd+3].[Gd+3].[Gd+3]` [Example 10, Tetragadolinium {4,10-bis(carboxylatomethyl)-7-[2-oxo-2-({3-({[4,7,10-tris(carboxylato-methyl)-1,4,7,10-tetraazacyclododecan-1-yl]acetyl}amino)-2,2-bis[({[4,7,10-tris-(carboxylatomethyl)-1,4,7,10-tetraazacyclododecan-1-yl]acetyl}amino)methyl]propyl}-amino)ethyl]-1,4,7,10-tetraazacyclododecan-1-yl}acetate], for which, in data set [1], the “r1 FBS” value came out at 9.2 L/mmol/s, the r1 human plasma came to 9.7 L/mmol/s and the r1 water is 7.3 L/mmol/s. Further, the Solubility in data set [3] is above 800 mmol Gd/L.

For the molecule “Hexagadolinium 2,2′,2″,2′″,2″″,2′″″,2″″″,2′″″″,2″″″″,2′″″″″,2″″″″″,2′″″″″″,2″″″″″″, 2′″″″″″″,2″″″″″″″, 2′″″″″″″″,2″″″″″″″″,2′″″″″″″″″-{3,7,10-triazatricyclo[3.3.3.0^1,5]undecane-3,7,10-triyltris[carbonyl(3,6,11,14-tetraoxo-4,7,10,13-tetraazahexadecane-8,2,15-triyl)di-1,4,7,10-tetraazacyclododecane-10,1,4,7-tetrayl]}octadecaacetate [Example 8]”, in data set [1], the “r1 FBS” value stood at 14.5 L/mmol/s, the r1 human plasma amounted to 14.6 L/mmol/s and the r1 water worked out at 12.5 L/mmol/s. Besides, the Solubility in data set [3] is listed as above 1000 mmol Gd/L.

With “Tetragadolinium 2,2′,2″,2′″,2″″,2′″″,2″″″,2′″″″,2″″″″,2′″″″″,2″″″″″,2′″″″″″-(3,7,9-triazabicyclo[3.3.1]nonane-3,7-diylbis{carbonyl-1,4-diazepane-6,1,4-triylbis[(2-oxoethane-2,1-diyl)-1,4,7,10-tetraazacyclododecane-10,1,4,7-tetrayl]})dodecaacetate [Example 9]”, in data set [1], the “r1 FBS” value was 8.8 L/mmol/s and the r1 water stood at 7.4 L/mmol/s. In data set [3], this molecule came in with a Solubility above 800 mmol Gd/L.
